Measured values reported in US11938136B2, “Compositions for treating spinal muscular atrophy” (Hoffmann-La Roche Inc., priority 2015, dated 2024).
Read-outs that look alike come from different tables or passages of the source.

What was measured:
human SMN2 pre-mRNA = assay: SMN2 splicing in SMA Type 1 fibroblasts (RT-PCR); type: cell-based; details: Fibroblast, 24 hours
Procedure: (§1) (A) SMN2 splicing in SMA Type 1 fibroblasts. (B) SMN protein in SMA Type 1 fibroblasts. (C) SMN protein in SMA Type 1 motor neurons. (D) SMN1 and SMN2 splicing in whole blood derived from HV. Fibroblasts from SMA Type 1 patients were cultured for 24 hours (A) or 48 hours (B); motor neurons from SMA Type 1 patient iPSCs (induced Pluripotent Stem Cells) were cultured for 72 hours (C) and whole blood cells from healthy volunteers (HV) for 4 hours (D) in the presence of the compound of Example 20. SMN splicing was assessed by RT-PCR, and SMN protein levels were assessed by homogenous time-resolved fluorescence (HTRF) in fibroblast lysates, and by immunostaining for SMN in motor neurons. Data represent means standard error (SEM) of 3 evaluations per data point and are expressed as fold change vs. untreated controls.
The compound of Example 20 is an orally available small molecule SMN2 splicing modifier for the treatment of SMA. It has been found, that the compound of Example 20 effectively corrects the dysfunctional splicing of the human SMN2 pre-mRNA in cultured patient cells (SMA Type 1 fibroblasts) by shifting the balance of the alternative splicing reaction completely towards the inclusion of SMN2 exon 7 and the production of the full-length mRNA (FIG. 1A: EC50 29±8 nM for FL, 12±1 nM for Δ7 mRNA). […] EC1.5× was 4.7±0.7 nM and the maximum induction was 20-fold.

SMN protein [1] = assay: SMN protein in spinal motor neurons derived from SMA patient iPSCs (immunostaining); type: cell-based, human
Procedure: as §1

SMN protein [2] = assay: SMN protein in brain and quadriceps muscle of SMNΔ7 mice (HTRF); type: in vivo, mouse
Procedure: (A) SMN protein in brains of C/C-allele mice. (B) SMN protein in brains of SMNΔ7 mice. (C) SMN protein in quadriceps muscle of C/C-allele mice. (D) SMN protein in quadriceps muscle of SMNΔ7 mice. C/C-allele mice and SMNΔ7 mice were treated with the compound of Example 20. One hour after the last dose, brains and quadriceps muscles were collected and levels of SMN protein were assessed by HTRF. Data represent means SEM of 5-6 animals per group and are expressed as fold change vs. vehicle-treated controls. *=p<0.05, **=p<0.01, ***=p<0.001 vs. untreated controls.
In vivo, the compound of Example 20 increases SMN protein in the brain and muscle in the severe SMNΔ7 model and the milder C/C-allele model, carrying human SMN2 transgenes. Adult C/C-allele mice were treated for 10 days with vehicle or the compound of Example 20 (1, 3 or 10 mg/kg PO, daily), and 3 days old (P3) SMNΔ7 mice were treated for 7 days with vehicle or the compound of Example 20 (0.1, 0.3, 1 or 3 mg/kg IP, daily). […] In SMNΔ7 mice, the SMN protein increase was only partial in both brain and muscle, reaching approximately 43% (brain) and 55% (muscle) of protein levels in heterozygous mice.

SMNΔ7 mice = assay: Survival and body weight of SMNΔ7 mice; type: in vivo, mouse
Procedure: FIG. 3. in vivo Effects of treatment SMNΔ7 mice with 7-(4,7-diazaspiro[2.5]octan-7-yl)-2-(2,8-dimethylimidazo[1,2-b]pyridazin-6-yl)pyrido[1,2-a]pyrimidin-4-one (Example 20). SMNΔ7 mice were treated with the compound of Example 20 from P3 onwards and animal survival (A) and body weight (B) were assessed daily until P100. Data represent means SEM of 10-12 mice per group. HET=heterozygous littermates.
Functional benefits were assessed in the severe and mild SMA mouse models. SMNΔ7 mice were treated from P3 to P23 once daily by IP injection of vehicle or the compound of Example 20, and from P24 onwards once daily by oral gavage. During the treatment period, body weight and animal survival were monitored. Over the 100-day observation period, only two heterozygous littermates died. In contrast, all vehicle-treated mice died before P21 with a median survival time (MST) of 10.5 days.

FoxM1 = assay: Alternative splicing of FoxM1 in SMA Type I patient fibroblasts (RT-qPCR); type: cell-based; details: Homo sapiens, Fibroblast, 24 hours
Procedure: FIG. 5. Alternative Splicing of FoxM1 in vitro SMA Type I patient fibroblasts were treated with the compound of Example 20 for 24 hours, and FoxM1 full-length (FL) and exon 9-lacking (Δ9) mRNAs were analyzed by RT-qPCR. Data represent means SEM of 6 repetitions and are expressed as fold change vs. untreated controls.
FoxM1, a gene alternatively spliced by other splicing modifier compounds, encodes a cell cycle regulator. […] 2007 February; 3(1):1-3. Laoukili et al, Biochim Biophys Acta. 2007 January; 1775(1):92-102]. […] Increased expression of the FoxM1A isoform, together with decreased expression of FoxM1 isoforms lacking exon 9, has the capability to disturb and inhibit cell cycle progression if splicing changes are at a level that is biologically significant. Thus, the compound of Example 20 acts in a similar way on the SMN2 and FoxM1 splicing machinery, but with opposing outcomes with regard to protein function and at varying degrees. The EC50 for MADD, a gene also identified as affected by splicing modifiers including the compound of Example 20 at high concentrations and known to be involved in apoptotic processes, is not known.

In the case of `Cc1cn2nc(-c3cc(=O)n4cc(N5CCNC6(CC6)C5)ccc4n3)cc(C)c2n1` [Example 20, 7-(4,7-diazaspiro[2.5]octan-7-yl)-2-(2,8-dimethylimidazo[1,2-b]pyridazin-6-yl)pyrido[1,2-a]pyrimidin-4-one], the EC50 (human SMN2 pre-mRNA; read-out: EC50 for FL SMN2 mRNA) is reported as 0.029 ± 0.008 µM, the EC50 (human SMN2 pre-mRNA; read-out: EC50 for Δ7 SMN2 mRNA) is reported as 0.012 ± 0.001 µM and the “maximal increase in SMN protein above untreated cells” value (SMN protein [1]; motor neurons from SMA patient iPSCs) is reported as 60-80%. For the same compound, the EC50 (SMN protein [1]; spinal motor neurons from SMA patient iPSCs, 72 hours) was 0.182 ± 0.114 µM, the “SMN protein in brain, of protein levels in heterozygous mice” value (SMN protein [2]; SMNΔ7 mice) was “approximately 43%” and the “SMN protein in muscle, of protein levels in heterozygous mice” value (SMN protein [2]; SMNΔ7 mice) was ~55%. For the same compound, the “maximum increase of SMN protein levels in brain and muscle tissue” value (SMN protein [2]; neonatal SMNΔ7 mice, 1-3 mg/kg IP daily, 7 days from P3) was 2-3 fold, the “recovery in body weight gain as compared to heterozygous littermates” value (shortened to “recovery … compared to heterozygous littermates”) (SMNΔ7 mice; high dose) was 85% and the “animals surviving up to P100” value (SMNΔ7 mice; high dose: 3 mg/kg IP through P23 and 10 mg/kg PO thereafter) was 73%. For the same compound, the “correction of impaired body weight increase” value (SMNΔ7 mice; low dose) was “only mildly corrected”, the “recovery … compared to heterozygous littermates” value (SMNΔ7 mice; mid dose) was 71% and the “animals surviving up to P100” value (SMNΔ7 mice; mid dose: 0.3 mg/kg IP through P23 and 1 mg/kg PO thereafter) was 80%. For the same compound, the “recovery … compared to heterozygous littermates” value (SMNΔ7 mice; mid/high dose) was 82%, the “animals surviving up to P100” value (SMNΔ7 mice; mid/high dose: 1 mg/kg IP through P23 and 3 mg/kg PO thereafter) was 82% and the EC50 (FoxM1; read-out: EC50 for FoxM1 FL mRNA) was 0.067 ± 0.032 µM. It also gave an EC50 (FoxM1; read-out: EC50 for FoxM1 Δ9 mRNA) of 0.139 ± 0.043 µM.
